Assay results: publication PMC10176470, “Engaging a Non-catalytic Cysteine Residue Drives Potent and Selective Inhibition of Caspase-6” (Journal of the American Chemical Society, 2023)
Read-outs that look alike come from different tables or passages of the source.

Assays:
Type in all cases: cell-based
[1] = biological target: proteins of HEK293T cells transiently overexpressing caspase-6 (Homo sapiens, UniProt Q13347); settings: protein EIF3I (Q13347); exp_ref Probe; analysis C6
[2] = biological target: proteins of HEK293T cells transiently overexpressing caspase-6 (Homo sapiens, UniProt P32119); settings: exp_ref Probe; protein PRDX2 (P32119); analysis C6
Sequence of proteins of HEK293T cells transiently overexpressing caspase-6 (Homo sapiens, UniProt P32119) (P32119 whole entry): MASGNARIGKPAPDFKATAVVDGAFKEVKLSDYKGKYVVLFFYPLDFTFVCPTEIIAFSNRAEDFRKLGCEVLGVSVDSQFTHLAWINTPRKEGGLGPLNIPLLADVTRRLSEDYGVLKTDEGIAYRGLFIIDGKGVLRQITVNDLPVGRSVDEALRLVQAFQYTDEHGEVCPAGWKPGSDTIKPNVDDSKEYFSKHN

[3] = biological target: proteins of HEK293T cells transiently overexpressing caspase-6 (Homo sapiens, UniProt Q12906); settings: exp_ref Probe; protein ILF3 (Q12906); analysis C6
Sequence of proteins of HEK293T cells transiently overexpressing caspase-6 (Homo sapiens, UniProt Q12906) (Q12906 whole entry): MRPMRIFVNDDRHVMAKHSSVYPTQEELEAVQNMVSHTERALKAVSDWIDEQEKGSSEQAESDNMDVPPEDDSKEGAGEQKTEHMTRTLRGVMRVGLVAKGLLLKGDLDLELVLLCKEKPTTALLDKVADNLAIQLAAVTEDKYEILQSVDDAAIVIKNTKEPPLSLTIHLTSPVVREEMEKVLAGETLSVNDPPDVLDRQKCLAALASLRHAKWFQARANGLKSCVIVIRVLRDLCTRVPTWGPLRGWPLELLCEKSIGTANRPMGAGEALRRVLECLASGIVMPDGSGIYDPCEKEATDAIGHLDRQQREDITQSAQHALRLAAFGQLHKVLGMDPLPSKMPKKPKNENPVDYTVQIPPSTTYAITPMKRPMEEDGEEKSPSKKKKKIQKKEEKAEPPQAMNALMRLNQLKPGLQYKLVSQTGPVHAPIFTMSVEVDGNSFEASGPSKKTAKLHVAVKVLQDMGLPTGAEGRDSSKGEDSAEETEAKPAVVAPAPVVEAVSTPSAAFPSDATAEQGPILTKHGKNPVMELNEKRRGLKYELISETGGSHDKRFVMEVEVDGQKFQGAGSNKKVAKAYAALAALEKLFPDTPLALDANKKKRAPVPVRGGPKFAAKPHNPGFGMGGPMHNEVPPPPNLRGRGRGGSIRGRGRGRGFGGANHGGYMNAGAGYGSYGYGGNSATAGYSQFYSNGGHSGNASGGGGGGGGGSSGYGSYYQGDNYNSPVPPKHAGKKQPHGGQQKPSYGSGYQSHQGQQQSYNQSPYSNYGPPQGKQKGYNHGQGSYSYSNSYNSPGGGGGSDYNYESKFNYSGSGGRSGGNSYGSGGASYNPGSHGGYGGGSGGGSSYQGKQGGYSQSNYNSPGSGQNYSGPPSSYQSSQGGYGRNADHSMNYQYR

[4] = biological target: T1, proteins of HEK293T cells transiently overexpressing caspase-6 (Homo sapiens, UniProt P62258); settings: protein YWHAE (P62258)
T1 sequence (P62258 1-255): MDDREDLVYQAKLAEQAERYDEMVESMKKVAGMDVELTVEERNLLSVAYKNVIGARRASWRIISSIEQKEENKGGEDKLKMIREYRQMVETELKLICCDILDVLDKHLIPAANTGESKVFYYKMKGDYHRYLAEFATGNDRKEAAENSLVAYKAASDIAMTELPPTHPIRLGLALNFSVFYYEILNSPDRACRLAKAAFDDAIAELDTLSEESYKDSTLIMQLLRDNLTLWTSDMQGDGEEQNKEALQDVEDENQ

[5] = biological target: proteins of HEK293T cells transiently overexpressing caspase-6 (Homo sapiens, UniProt Q9NTK5); settings: protein OLA1 (Q9NTK5), analysis C6
[6] = biological target: proteins of HEK293T cells transiently overexpressing caspase-6 (Homo sapiens, UniProt P62633); settings: exp_ref Probe; protein CNBP (P62633); analysis C6
Sequence of proteins of HEK293T cells transiently overexpressing caspase-6 (Homo sapiens, UniProt P62633) (P62633 whole entry): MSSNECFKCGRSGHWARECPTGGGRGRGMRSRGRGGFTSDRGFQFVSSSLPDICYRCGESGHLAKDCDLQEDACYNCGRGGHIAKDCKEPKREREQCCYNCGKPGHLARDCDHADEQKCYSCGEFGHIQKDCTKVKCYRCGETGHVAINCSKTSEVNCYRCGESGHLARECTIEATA

[7] = biological target: T2, proteins of HEK293T cells transiently overexpressing caspase-6 (Homo sapiens, UniProt O95197); settings: protein RTN3 (O95197)
T2 sequence (O95197 1-1032): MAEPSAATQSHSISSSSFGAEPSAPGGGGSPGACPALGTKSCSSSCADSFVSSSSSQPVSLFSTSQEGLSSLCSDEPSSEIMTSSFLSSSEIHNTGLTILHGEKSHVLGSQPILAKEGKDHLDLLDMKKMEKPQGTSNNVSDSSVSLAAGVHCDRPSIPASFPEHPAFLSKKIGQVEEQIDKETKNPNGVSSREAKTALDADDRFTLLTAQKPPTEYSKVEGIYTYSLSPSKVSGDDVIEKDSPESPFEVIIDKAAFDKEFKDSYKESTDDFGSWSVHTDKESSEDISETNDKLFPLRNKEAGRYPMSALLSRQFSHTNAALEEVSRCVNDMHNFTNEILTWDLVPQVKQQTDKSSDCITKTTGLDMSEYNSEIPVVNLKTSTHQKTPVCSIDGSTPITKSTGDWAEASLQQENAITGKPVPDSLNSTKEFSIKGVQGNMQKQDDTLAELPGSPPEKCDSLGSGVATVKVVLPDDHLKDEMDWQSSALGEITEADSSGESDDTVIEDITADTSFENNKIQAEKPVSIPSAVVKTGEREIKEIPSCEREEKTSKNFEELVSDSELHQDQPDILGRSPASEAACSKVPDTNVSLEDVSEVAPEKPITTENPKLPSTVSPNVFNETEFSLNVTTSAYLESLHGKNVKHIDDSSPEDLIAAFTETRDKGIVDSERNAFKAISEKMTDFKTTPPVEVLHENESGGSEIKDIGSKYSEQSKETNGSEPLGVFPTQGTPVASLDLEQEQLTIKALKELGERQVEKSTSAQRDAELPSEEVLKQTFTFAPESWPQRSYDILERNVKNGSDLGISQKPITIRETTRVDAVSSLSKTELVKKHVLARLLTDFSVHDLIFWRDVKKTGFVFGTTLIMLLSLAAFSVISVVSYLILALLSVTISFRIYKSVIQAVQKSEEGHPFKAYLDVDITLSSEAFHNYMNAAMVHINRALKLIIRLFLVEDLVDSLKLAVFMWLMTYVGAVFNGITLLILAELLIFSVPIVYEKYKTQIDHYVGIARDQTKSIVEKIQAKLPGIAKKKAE

[8] = biological target: proteins of HEK293T cells transiently overexpressing caspase-6 (Homo sapiens, UniProt P42704); settings: exp_ref Probe; protein LRPPRC (P42704); analysis C6
[9] = biological target: proteins of HEK293T cells transiently overexpressing caspase-6 (Homo sapiens, UniProt P15880); settings: protein RPS2 (P15880)
[10] = biological target: proteins of HEK293T cells transiently overexpressing caspase-6 (Homo sapiens, UniProt P28838); settings: exp_ref Probe; protein LAP3 (P28838); analysis C6
Sequence of proteins of HEK293T cells transiently overexpressing caspase-6 (Homo sapiens, UniProt P28838) (P28838 whole entry): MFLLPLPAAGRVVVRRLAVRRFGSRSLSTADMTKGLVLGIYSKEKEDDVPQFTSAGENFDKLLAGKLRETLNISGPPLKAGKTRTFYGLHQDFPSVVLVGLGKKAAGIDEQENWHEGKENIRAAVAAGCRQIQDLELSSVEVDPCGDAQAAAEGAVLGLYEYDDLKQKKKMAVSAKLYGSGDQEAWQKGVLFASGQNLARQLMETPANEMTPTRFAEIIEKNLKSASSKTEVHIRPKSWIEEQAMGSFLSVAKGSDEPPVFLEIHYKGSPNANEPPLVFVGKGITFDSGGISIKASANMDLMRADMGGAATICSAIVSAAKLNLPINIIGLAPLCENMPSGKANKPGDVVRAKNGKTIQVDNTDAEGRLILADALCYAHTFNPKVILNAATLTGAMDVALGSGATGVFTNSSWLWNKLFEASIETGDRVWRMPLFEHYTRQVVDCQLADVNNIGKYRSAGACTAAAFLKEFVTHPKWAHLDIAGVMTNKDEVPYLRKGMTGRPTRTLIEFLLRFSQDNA

[11] = biological target: proteins of HEK293T cells transiently overexpressing caspase-6 (Homo sapiens, UniProt P04843); settings: exp_ref Probe; protein RPN1 (P04843); analysis C6
Sequence of proteins of HEK293T cells transiently overexpressing caspase-6 (Homo sapiens, UniProt P04843) (P04843 24-607): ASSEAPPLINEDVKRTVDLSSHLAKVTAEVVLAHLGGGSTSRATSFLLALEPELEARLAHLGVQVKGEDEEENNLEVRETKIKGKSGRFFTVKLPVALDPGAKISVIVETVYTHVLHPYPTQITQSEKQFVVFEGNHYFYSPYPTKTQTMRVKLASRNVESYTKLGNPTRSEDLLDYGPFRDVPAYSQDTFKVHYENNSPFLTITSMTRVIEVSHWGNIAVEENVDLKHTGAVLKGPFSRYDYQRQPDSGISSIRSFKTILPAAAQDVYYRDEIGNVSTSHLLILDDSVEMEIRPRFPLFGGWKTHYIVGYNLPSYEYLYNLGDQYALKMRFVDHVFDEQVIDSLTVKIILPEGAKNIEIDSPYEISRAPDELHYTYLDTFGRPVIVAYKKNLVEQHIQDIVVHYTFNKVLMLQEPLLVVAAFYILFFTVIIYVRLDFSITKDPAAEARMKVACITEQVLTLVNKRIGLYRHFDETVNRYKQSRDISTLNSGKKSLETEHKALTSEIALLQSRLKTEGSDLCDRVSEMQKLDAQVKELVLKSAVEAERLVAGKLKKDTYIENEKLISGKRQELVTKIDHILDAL

[12] = biological target: proteins of HEK293T cells transiently overexpressing caspase-6 (Homo sapiens, UniProt P12268); settings: exp_ref Probe; protein IMPDH2 (P12268); analysis C6
[13] = biological target: proteins of HEK293T cells transiently overexpressing caspase-6 (Homo sapiens, UniProt P63261); settings: exp_ref Probe; protein ACTG1 (P63261); analysis C6
[14] = biological target: proteins of HEK293T cells transiently overexpressing caspase-6 (Homo sapiens, UniProt P53985); settings: exp_ref Probe; protein SLC16A1 (P53985); analysis C6
Sequence of proteins of HEK293T cells transiently overexpressing caspase-6 (Homo sapiens, UniProt P53985) (P53985 whole entry): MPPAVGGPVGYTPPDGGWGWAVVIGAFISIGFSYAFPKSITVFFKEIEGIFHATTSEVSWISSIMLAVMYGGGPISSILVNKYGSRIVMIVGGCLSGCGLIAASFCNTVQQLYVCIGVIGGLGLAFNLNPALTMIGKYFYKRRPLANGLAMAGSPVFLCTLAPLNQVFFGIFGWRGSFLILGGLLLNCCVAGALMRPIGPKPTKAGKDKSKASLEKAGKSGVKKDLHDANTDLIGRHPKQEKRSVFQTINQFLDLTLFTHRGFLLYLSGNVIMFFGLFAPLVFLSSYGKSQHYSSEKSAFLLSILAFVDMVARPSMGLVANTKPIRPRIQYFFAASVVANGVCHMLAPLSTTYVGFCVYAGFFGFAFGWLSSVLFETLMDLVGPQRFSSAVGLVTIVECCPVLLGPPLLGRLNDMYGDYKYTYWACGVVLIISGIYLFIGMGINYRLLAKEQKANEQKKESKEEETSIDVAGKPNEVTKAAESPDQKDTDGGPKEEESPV

[15] = biological target: proteins of HEK293T cells transiently overexpressing caspase-6 (Homo sapiens, UniProt Q16576); settings: exp_ref Probe; protein RBBP7 (Q16576); analysis C6
Sequence of proteins of HEK293T cells transiently overexpressing caspase-6 (Homo sapiens, UniProt Q16576) (Q16576 whole entry): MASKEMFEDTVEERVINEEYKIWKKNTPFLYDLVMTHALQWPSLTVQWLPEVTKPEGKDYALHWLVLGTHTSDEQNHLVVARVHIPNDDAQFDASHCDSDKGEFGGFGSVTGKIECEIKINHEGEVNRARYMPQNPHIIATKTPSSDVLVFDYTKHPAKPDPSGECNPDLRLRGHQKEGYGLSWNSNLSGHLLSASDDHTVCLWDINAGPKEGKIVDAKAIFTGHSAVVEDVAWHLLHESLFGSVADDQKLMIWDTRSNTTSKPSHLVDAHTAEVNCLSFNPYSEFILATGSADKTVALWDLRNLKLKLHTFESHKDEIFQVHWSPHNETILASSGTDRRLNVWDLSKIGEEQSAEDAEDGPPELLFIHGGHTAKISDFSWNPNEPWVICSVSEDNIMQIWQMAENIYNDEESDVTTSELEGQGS

Sequence of proteins of HEK293T cells transiently overexpressing caspase-6 (Homo sapiens, UniProt Q13347) (Q13347 whole entry): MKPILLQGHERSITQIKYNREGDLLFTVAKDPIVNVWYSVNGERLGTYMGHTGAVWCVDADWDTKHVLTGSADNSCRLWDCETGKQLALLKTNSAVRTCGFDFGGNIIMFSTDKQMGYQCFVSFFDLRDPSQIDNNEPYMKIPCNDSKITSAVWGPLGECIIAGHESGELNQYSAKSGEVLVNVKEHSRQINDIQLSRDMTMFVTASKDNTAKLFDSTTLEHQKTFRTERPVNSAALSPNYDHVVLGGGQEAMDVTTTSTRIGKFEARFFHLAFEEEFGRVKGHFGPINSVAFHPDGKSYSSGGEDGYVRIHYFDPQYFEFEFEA

C#CCOc1ccc([C@@H]2C[C@@H](C(=O)Nc3ccc(OC(F)(F)F)cc3)CN(S(=O)(=O)C=C)C2)cc1 (relative stereo) [13-t]
enrich.exp.med [1]: 1.576
enrich.exp.med [2]: 0.2933
enrich.exp.med [3]: 0.1427
enrich.exp.med ([4]; exp_ref Probe, analysis C6): 0.9895
enrich.exp.med.lin [4]: 1.986
enrich.exp.med.log2 [4]: 0.9895
enrich.exp.med.lin ([5]; Expt Probe): 6.528
enrich.exp.med.log2 ([5]; Expt Probe): 2.707
enrich.exp.med ([5]; exp_ref Probe): 2.707
enrich.exp.med [6]: -0.4177
enrich.exp.med.lin [7]: 5.629
enrich.exp.med.log2 [7]: 2.493
enrich.exp.med.lin ([7]; Expt Probe, analysis C6): 5.629
enrich.exp.med.log2 ([7]; Expt Probe, analysis C6): 2.493
enrich.exp.med ([7]; exp_ref Probe, analysis C6): 2.493
enrich.exp.med [8]: 0.2022
enrich.exp.med ([9]; exp_ref Probe, analysis C6): 0.988
enrich.exp.med.lin [9]: 1.9835
enrich.exp.med.log2 [9]: 0.988
enrich.exp.med [10]: 0.6337
enrich.exp.med [11]: 1.117
enrich.exp.med [12]: 0.7134
enrich.exp.med [13]: 0.6252
enrich.exp.med [14]: -0.3557
enrich.exp.med [15]: 0.6141
